Among the data in patent publication US7741520B2, “Sulfonanilide analogs as selective aromatase modulators (SAMs)” (The Ohio State University Research Foundation, priority 2006, dated 2010) are inhibition and apoptotic effects values, retold here.

Series [1] deals with T1, aromatase activity in JAR choriocarcinoma placental cells (Homo sapiens, UniProt P11511).
T1 construct: JAR choriocarcinoma placental cells (which produce aromatase expression from promoter I.1 mediated by protein kinase C); host or cells: JAR
T1 sequence (P11511 1-503): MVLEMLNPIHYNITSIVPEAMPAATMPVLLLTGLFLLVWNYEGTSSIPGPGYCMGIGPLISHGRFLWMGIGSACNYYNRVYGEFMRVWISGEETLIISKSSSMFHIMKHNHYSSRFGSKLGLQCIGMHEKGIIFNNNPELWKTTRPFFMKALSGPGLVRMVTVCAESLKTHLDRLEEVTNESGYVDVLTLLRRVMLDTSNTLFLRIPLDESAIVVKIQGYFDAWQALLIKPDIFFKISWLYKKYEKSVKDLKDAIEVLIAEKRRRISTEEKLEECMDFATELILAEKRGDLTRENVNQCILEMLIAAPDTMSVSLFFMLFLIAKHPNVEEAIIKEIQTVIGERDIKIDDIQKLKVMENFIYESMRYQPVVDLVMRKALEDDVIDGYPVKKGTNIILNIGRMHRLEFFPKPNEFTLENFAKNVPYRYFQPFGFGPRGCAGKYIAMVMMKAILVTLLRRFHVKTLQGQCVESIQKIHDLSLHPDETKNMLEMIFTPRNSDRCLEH
Description: Tritiated water-release assay in JAR cells. The series is classed as cell-based. The following applies: 24 h, 15 μM (FIG. 11), read-out: decrease of aromatase activity in JAR cells. The method, then: Cell Culture. AR and SK-BR-3 cells were obtained from ATCC (Rockville, Md.). SK-BR-3 cells were maintained in phenol red-free custom media (MEM, Earle's salts, 1.5× amino acids, 2× non-essential amino acids, L-glutamine, 1.5× vitamins, Gibco BRL) supplemented with 10% fetal bovine serum (FBS), 2 mM L-glutamine and 20 mg/L gentamycin. JAR cells were maintained in RPMI 1640 medium with 2 mM L-glutamine adjusted to contain 1.5 g/L sodium bicarbonate, 4.5 g/L glucose, 10 mM HEPES, and 1.0 mM sodium pyruvate, 90%; FBS, 10%. Fetal bovine serum was heat inactivated for 30 min in a 56° C. water bath before use. Cell cultures were grown at 37° C., in a humidified atmosphere of 5% CO2 in a Hereaus CO2 incubator. For all experiments, cells were plated in 6 well plates and grown to subconfluency. Before treatment, the media was changed to a defined one containing DMEM/F12 media (Sigma) with 1.0 mg/mL human albumin (OSU Hospital Pharmacy), 5.0 mg/L human transferin and 5.0 mg/L bovine insulin.
Tritiated water-release assay in JAR and SK-BR-3 cell lines. Measurement of aromatase enzyme activity was based on the tritium water release assay. Cells in six well plates were treated with 0.1% DMSO (control), and inhibitors at the indicated concentrations. After 24 hours, the cells were incubated 3 hours (SK-BR-3 cells) or 1 hour (JAR cells) with fresh media along with 100 nM [1β-^3H]-androst-4-ene-3,17-dione (1 μCi). Subsequently, the reaction mixture was removed, and proteins were precipitated using 10% trichloroacetic acid at 42° C. for 20 min. After a brief centrifugation, the media was extracted three times with an equal amount of chloroform to remove remaining substrate and further treated with dextran-treated charcoal. After centrifugation, a 250-μl aliquot containing the product was counted in 5 ml of liquid scintillation mixture. Results were corrected for blanks and for the cell contents of culture flasks, and results were expressed as picomoles of ^3H2O formed per hour incubation time per million live cells (pmol/h/10^6 cells). To determine the amount of cells in each flask, the cells were lysed and analyzed using the diphenylamine DNA assay adapted to a 96-well plate. IC50 sigmoidal dose-response data were analyzed with Microsoft Excel and the Graphpad Prism (Version 3.0) program.
Diphenylamine DNA Assay To determine the amount of viable cells in each flask, the cells were lysed with 0.5N NaOH aqueous solution and analyzed using the diphenylamine DNA assay adapted to a 96-well plate. DNA standards (0-30 μg) were prepared using double-stranded DNA reconstituted in PBS and added in triplicates directly to the wells. A uniform cell suspension was prepared from the 6 well plate in 300 μl 0.5N NaOH aqueous solution, and 60 μl of the unknown samples were added in triplicates to separate wells. A solution of 0.16% acetaldehyde in water was prepared and mixed at a 1:5 ratio with perchloric acid (20% vol/vol). This solution (60 μl) was added to each well along with 100 μl of a 4% diphenylamine solution in glacial acetic acid. The plates were incubated at 37° C. for 24 hours. After centrifugation, 100 μl supernatant of each well was transferred to a new 96 well plate, and the OD595 was measured using a microplater reader. The DNA concentration was determined by extrapolation to the standard curve and the amount of cells/well was calculated using the equation: 1 cell≈7 pg DNA.

In a further series the test system is SK-BR-3 cells. The experiment in a line: Analysis of apoptosis (single-stranded DNA ELISA) in SK-BR-3 cells. The series is classed as cell-based, human. The following applies: 5 μM, 24 hours (FIG. 16). The method, then: Analysis of apoptosis. Apoptosis was determined by selective denaturation of DNA in apoptotic cells by formamide and detection of denatured DNA with a monoclonal antibody to single-stranded DNA using an ELISA kit (CHEMICON, Temecula, Calif.). Cells were plated in a 96-well flat bottom plate from 0.5×10^4 to 1×10^4 cells/well in custom media. Cells were allowed to adhere to wells overnight. Following incubation, compounds were made up in define media and a 5 μM screen was performed in each cell line with respective compounds in triplicate for 24 hours. Following treatment, the plate was centrifuged at 200×g for 5 min, media was removed followed by the addition of 200 μl of fixative. The plate was incubated for 30 min at 37° C., at which point the fixative was removed and the plate dried for 1-2 hours at room temperature. Fifty microliters of formamide was added to each well following a brief incubation at room temperature for 10 min. The DNA in apoptotic cells was denatured by heating the plate for 10 min, then briefly cooling the plate for 5 min at 4° C. following removal of formamide. The plate was rinsed three times with 200 μl of PBS following one hour incubation at 37° C. with 200 μl of 3% blocking agent. After removal of the blocking agent, 100 μl of antibody mixture were added to each well for 30 min at room temperature. The plate was washed three times with 1× wash buffer using 250 μl of wash buffer/well followed by the addition of 200 μl of ABTS solution added to each well for a 15-60 minute incubation. The reaction was stopped by the addition of 100 μl of a stop solution added to each well and absorbance was measured at 405 nm on a SpectroMax 340 UV PlateReader.

For `CN(c1ccc([N+](=O)[O-])cc1OCc1ccccc1-c1ccccc1)S(C)(=O)=O` [Compound 29c, N-methyl-N-[2-(2′-phenylbenzyloxy)-4-nitrophenyl]methanesulfonamide], the inhibition at 15 µM in series [1] is below 50%. Besides, the apoptotic effects result in the series with SK-BR-3 cells is given as “do not produce apoptotic effects”.
For `CN(c1ccc([N+](=O)[O-])cc1OCc1ccc(F)cc1)S(C)(=O)=O` [Compound 33c, N-methyl-N-[2-(4′-fluorobenzyloxy)-4-nitrophenyl]methanesulfonamide], in that order: below 50% and “do not produce apoptotic effects”.
On the same counts, the results for `CN(c1ccc([N+](=O)[O-])cc1OCc1ccccc1)S(C)(=O)=O` [Compound 26f, N-methyl-N-(2-benzyloxy-4-nitrophenyl) methanesulfonamide] are below 50% and “do not produce apoptotic effects”.
As to `CN(c1ccc([N+](=O)[O-])cc1OCc1ccc2ccccc2c1)S(C)(=O)=O` [Compound 28c, N-methyl-N-[2-(β-naphthylmethoxy) 4-nitrophenyl]methanesulfonamide], the inhibition at 15 µM in series [1] is below 50%. Also, the apoptotic effects result in the series with SK-BR-3 cells is on record as “do not produce apoptotic effects”.
For `Cc1ccc(COc2cc([N+](=O)[O-])ccc2N(C)S(C)(=O)=O)cc1` [Compound 30c, N-methyl-N-[2-(4′-methylbenzyloxy)-4-nitrophenyl]methanesulfonamide], in that order: below 50% and “do not produce apoptotic effects”.
Regarding `CN(c1ccc([N+](=O)[O-])cc1OCc1ccc([N+](=O)[O-])cc1)S(C)(=O)=O` [Compound 27c, N-methyl-N-[2-(4′-nitrobenzyloxy)-4-nitrophenyl]methanesulfonamide], the inhibition at 15 µM in series [1] is below 50%. The apoptotic effects result with SK-BR-3 cells is recorded as “do not produce apoptotic effects”.
